From ChEMBL document CHEMBL1201862, “PubChem BioAssay data set” (2004) come the findings set out here.

A word on the Ki: it is a dissociation constant, usually derived from enzyme kinetics or from competition with a known ligand. The IC50 is the concentration needed to halve the response being measured.

What all share (format): functional
Assay [1] concerns the target T1, High affinity choline transporter 1 (Homo sapiens, UniProt Q9GZV3).
T1 sequence (Q9GZV3 whole entry): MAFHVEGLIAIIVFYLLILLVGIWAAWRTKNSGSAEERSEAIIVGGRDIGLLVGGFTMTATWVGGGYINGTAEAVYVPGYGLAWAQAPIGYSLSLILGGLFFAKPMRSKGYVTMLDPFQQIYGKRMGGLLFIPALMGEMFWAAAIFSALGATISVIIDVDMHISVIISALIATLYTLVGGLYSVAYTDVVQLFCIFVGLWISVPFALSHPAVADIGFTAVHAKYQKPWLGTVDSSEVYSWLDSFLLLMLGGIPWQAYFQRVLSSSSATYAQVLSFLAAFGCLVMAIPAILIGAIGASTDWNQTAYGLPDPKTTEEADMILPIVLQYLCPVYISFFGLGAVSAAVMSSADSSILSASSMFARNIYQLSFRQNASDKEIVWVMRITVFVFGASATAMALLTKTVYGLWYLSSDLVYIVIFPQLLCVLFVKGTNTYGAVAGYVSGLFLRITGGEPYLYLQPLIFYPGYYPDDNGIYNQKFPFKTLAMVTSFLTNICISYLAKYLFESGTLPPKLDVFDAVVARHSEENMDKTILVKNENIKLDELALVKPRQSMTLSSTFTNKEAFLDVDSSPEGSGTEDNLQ
Put plainly: CHT activators, dose response, cell-based, 10-point CRC, membrane potential dye (AID 602376).

In assay [2] the target is MAP kinase-interacting serine/threonine-protein kinase 2 (Homo sapiens, UniProt Q9HBH9).
The target in assay [3] is Cell division cycle 7-related protein kinase (Homo sapiens, UniProt O00311).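 Also: value obtained from a kinome-wide kinase panel.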
Cell division cycle 7-related protein kinase, sequence (O00311 whole entry): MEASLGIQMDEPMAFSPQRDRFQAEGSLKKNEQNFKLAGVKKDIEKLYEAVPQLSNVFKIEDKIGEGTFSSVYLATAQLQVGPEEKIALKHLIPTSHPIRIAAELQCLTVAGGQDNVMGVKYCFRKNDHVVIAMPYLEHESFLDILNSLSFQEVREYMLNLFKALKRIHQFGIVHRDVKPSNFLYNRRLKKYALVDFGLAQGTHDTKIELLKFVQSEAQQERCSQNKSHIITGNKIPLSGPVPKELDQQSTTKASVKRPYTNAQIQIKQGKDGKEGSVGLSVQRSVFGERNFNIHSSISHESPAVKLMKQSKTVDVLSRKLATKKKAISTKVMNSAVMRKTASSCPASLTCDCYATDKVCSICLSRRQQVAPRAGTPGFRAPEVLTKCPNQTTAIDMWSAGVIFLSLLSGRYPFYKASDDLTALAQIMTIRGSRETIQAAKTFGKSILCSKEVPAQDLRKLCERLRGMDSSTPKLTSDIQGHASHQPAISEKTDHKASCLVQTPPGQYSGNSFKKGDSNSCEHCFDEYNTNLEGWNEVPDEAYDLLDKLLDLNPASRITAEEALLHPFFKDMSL
The target of assay [4] is Serine/threonine-protein kinase pim-1 (Homo sapiens, UniProt P11309).
Serine/threonine-protein kinase pim-1, sequence (P11309 whole entry): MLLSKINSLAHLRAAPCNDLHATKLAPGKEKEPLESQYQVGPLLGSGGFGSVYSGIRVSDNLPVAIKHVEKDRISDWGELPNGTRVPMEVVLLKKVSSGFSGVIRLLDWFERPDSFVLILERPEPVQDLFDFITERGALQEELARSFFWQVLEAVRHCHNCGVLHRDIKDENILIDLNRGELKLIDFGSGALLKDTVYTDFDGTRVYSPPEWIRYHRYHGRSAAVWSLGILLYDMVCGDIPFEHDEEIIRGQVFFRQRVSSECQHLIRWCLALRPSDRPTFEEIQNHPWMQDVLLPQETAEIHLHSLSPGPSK
The target in assay [5] is Dual specificity protein kinase CLK4 (Homo sapiens, UniProt Q9HAZ1).
Dual specificity protein kinase CLK4, sequence (Q9HAZ1 whole entry): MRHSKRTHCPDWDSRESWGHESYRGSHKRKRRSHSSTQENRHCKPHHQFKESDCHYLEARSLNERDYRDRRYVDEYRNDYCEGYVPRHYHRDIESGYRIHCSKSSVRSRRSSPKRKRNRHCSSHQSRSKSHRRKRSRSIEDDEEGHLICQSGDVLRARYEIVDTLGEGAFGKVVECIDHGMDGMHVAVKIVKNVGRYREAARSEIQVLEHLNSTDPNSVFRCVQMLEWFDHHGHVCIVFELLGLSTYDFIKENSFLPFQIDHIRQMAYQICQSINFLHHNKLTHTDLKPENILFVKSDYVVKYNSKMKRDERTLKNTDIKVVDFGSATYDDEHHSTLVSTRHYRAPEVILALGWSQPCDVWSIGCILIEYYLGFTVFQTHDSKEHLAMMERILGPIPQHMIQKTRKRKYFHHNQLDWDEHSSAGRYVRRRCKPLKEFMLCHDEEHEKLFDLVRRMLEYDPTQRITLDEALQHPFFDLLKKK
For assay [6], the target named is Glycogen synthase kinase-3 beta (Homo sapiens, UniProt P49841).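 Also: value comes from a broad kinome profiling panel, with GSK3B as the panel member.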
Glycogen synthase kinase-3 beta, sequence (P49841 whole entry): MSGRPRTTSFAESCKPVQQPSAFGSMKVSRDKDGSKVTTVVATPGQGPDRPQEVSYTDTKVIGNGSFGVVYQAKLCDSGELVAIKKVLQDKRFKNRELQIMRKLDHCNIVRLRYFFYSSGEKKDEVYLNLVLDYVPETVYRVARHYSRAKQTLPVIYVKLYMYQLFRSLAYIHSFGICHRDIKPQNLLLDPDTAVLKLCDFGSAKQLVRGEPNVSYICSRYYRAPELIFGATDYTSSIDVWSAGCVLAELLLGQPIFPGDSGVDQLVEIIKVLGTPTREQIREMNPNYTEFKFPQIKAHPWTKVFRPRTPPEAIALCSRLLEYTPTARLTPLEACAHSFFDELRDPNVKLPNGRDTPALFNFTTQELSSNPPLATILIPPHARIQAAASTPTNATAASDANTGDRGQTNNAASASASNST
The target in assay [7] is Mitogen-activated protein kinase kinase kinase kinase 4 (Homo sapiens, UniProt O95819).
Mitogen-activated protein kinase kinase kinase kinase 4, sequence (O95819 whole entry): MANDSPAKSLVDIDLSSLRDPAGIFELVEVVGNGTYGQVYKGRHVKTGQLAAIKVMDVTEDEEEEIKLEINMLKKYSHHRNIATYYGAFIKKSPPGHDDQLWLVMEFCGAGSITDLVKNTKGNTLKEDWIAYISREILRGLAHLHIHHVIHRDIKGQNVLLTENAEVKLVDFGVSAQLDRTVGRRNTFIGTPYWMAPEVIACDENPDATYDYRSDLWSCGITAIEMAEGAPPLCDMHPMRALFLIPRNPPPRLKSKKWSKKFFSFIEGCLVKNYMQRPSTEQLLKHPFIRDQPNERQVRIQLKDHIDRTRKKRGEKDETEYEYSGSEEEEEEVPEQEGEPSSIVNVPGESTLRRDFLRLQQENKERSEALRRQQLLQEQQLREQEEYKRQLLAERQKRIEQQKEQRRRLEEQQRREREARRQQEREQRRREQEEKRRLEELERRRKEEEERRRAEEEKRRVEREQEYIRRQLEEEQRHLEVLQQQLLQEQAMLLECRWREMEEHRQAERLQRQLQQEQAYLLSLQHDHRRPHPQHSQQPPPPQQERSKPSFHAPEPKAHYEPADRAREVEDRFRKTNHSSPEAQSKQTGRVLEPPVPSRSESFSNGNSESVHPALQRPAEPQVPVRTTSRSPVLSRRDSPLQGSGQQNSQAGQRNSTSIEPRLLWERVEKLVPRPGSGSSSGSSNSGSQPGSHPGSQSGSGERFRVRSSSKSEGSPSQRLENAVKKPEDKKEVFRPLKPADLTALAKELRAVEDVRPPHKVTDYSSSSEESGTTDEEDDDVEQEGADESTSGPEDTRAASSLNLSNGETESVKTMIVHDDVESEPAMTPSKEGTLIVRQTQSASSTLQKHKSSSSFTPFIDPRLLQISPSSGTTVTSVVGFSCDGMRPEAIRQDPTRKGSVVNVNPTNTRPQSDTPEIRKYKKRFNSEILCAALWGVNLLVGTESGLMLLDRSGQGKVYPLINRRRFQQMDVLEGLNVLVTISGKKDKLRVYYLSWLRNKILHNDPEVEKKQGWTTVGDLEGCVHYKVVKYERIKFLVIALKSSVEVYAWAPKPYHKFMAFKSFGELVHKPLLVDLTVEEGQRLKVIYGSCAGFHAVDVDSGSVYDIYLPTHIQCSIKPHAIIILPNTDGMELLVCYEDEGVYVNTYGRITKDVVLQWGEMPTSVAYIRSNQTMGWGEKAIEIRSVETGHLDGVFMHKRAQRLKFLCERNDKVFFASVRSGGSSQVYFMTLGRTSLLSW
The target in assay [8] is cAMP-dependent protein kinase catalytic subunit alpha (Homo sapiens, UniProt P17612).
Assay [9] has as its target Interleukin-1 receptor-associated kinase 4 (Homo sapiens, UniProt Q9NWZ3).
For assay [10], the target named is Homeodomain-interacting protein kinase 2 (Homo sapiens, UniProt Q9H2X6).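 Also: measured within a kinome-wide kinase profiling panel, HIPK2 being one panel member.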
Homeodomain-interacting protein kinase 2, sequence (Q9H2X6 whole entry): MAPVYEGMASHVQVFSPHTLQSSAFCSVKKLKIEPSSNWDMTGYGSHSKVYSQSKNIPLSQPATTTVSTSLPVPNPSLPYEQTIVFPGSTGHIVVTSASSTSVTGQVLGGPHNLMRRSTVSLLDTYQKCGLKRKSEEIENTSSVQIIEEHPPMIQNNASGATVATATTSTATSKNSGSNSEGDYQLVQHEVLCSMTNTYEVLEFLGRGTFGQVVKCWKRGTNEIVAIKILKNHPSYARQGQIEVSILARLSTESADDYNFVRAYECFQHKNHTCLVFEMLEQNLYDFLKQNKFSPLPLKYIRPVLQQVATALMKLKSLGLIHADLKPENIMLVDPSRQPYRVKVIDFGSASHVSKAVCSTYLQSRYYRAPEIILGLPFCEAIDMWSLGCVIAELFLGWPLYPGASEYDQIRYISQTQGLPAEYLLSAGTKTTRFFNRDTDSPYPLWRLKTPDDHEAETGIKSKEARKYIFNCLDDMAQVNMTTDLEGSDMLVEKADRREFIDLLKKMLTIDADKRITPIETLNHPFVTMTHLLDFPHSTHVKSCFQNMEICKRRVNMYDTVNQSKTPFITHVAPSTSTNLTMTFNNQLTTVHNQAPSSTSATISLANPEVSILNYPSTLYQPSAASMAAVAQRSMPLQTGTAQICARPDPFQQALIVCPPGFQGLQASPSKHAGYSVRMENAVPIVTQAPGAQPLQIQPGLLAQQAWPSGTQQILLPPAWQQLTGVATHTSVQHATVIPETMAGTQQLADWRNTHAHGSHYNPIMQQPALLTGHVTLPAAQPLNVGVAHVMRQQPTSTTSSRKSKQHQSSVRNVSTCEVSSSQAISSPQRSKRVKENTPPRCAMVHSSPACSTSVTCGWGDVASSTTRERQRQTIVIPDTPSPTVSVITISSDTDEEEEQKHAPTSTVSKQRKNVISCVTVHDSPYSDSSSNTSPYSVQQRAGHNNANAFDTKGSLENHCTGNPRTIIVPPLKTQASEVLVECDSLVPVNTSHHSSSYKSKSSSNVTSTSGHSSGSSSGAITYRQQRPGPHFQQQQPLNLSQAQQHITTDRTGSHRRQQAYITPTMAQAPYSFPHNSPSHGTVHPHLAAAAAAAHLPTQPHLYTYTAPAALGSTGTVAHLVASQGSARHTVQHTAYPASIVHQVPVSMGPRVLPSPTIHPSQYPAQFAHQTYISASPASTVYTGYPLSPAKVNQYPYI
The target of assay [11] is Apoptotic protease-activating factor 1 (Homo sapiens, UniProt O14727).
Assay [12] concerns the target T2, Ubiquitin-conjugating enzyme E2 N (Homo sapiens, UniProt P61088).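 Also: Dose-response confirmation in a TR-FRET assay detecting UBC13-driven polyubiquitin chain formation, inhibition measured.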
T2 sequence (P61088 whole entry): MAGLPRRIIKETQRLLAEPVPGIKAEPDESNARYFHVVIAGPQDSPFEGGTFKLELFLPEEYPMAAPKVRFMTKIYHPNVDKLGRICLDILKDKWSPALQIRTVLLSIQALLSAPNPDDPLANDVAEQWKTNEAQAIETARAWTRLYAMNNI

The target of assay [13] is T3, Sentrin-specific protease 6 (Homo sapiens, UniProt Q9GZR1).
T3 sequence (Q9GZR1 whole entry): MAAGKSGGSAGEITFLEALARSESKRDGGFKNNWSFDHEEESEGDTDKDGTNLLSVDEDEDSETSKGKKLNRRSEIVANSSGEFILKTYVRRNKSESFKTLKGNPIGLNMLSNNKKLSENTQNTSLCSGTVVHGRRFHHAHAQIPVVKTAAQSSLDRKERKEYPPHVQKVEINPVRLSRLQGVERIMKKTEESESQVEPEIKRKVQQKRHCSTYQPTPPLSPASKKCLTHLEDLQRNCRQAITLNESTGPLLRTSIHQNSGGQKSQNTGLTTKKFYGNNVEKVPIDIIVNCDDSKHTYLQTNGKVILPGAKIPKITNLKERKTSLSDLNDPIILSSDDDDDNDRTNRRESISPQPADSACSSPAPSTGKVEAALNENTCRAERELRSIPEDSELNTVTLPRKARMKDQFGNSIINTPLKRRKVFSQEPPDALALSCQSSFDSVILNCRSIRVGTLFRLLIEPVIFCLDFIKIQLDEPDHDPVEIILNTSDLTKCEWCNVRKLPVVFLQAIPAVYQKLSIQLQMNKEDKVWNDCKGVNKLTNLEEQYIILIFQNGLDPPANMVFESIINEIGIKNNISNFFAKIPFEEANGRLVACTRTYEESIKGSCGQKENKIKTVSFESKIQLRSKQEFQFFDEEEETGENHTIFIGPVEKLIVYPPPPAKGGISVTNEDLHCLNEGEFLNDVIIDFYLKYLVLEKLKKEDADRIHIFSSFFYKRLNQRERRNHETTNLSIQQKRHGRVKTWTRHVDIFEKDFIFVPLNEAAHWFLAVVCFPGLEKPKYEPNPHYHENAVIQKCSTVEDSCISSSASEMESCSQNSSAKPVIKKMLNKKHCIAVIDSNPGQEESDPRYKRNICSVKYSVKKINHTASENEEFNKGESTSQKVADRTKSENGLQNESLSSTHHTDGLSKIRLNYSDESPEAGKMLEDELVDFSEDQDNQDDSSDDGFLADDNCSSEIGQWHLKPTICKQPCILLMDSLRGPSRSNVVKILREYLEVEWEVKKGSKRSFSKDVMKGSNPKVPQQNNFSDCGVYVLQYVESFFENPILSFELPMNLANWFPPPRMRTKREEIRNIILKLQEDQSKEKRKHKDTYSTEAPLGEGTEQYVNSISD
Nature of the assay: SENP6 protease inhibitors, SAR follow-up, biochemical, luminescence, set 2 (AID 588598).

Assay [14] concerns the target T4, Caspase-3 (Homo sapiens, UniProt P42574).
T4 sequence (P42574 whole entry): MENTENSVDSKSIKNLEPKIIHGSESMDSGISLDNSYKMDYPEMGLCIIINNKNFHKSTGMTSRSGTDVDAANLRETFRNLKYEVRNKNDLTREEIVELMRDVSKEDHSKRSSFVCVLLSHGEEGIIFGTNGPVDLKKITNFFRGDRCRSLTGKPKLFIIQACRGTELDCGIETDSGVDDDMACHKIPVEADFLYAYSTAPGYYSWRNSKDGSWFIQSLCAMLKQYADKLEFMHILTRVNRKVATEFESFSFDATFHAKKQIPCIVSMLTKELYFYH
Nature of the assay: caspase-3 inhibitors as off-family protease, SAR follow-up, selectivity assay for SENP protease inhibitor project, biochemical, luminescence, set 2 (AID 588599).

Assay [15] has as its target T5, Sentrin-specific protease 8 (Homo sapiens, UniProt Q96LD8).
T5 sequence (Q96LD8 whole entry): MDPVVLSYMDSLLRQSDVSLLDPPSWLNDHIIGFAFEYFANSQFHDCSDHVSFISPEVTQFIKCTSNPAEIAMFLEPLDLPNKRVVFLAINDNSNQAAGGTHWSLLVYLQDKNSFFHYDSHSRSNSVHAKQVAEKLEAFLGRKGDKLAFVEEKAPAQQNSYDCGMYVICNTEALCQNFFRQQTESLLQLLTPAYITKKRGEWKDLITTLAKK
Put plainly: SENP8 protease inhibitors, SAR follow-up, biochemical, luminescence, set 2 (AID 588601).

Assay [16] has as its target T6, Sentrin-specific protease 7 (Homo sapiens, UniProt Q9BQF6).
T6 sequence (Q9BQF6 whole entry): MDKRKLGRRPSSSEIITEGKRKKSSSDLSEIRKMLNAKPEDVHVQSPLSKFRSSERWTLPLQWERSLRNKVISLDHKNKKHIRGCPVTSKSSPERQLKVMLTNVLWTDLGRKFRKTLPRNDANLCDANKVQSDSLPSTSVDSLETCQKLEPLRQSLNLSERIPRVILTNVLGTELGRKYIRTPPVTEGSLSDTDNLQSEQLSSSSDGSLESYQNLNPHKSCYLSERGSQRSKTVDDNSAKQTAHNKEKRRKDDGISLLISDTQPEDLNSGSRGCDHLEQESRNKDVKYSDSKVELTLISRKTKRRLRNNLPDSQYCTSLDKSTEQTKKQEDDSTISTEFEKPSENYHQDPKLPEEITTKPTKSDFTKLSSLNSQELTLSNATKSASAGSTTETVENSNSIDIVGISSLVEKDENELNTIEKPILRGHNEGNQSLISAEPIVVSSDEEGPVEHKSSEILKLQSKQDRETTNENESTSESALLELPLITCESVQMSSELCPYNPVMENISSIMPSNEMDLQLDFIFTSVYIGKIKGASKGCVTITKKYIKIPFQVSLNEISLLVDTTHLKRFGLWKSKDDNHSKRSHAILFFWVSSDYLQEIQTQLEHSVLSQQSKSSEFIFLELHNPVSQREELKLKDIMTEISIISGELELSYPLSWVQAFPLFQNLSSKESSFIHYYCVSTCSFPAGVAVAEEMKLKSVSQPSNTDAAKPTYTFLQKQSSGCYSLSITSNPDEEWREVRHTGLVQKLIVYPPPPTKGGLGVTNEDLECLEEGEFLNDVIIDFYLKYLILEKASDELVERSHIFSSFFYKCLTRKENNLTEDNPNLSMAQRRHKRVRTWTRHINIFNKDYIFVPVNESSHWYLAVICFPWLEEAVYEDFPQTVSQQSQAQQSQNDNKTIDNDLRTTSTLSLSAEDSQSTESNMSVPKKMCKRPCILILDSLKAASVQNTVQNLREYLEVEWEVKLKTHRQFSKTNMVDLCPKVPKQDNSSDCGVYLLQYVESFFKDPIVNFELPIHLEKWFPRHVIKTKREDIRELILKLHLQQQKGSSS
Nature of the assay: SENP7 protease inhibitors, SAR follow-up, biochemical, luminescence, set 2 (AID 588600).

Assay [17] deals with T4, Caspase-3. Nature of the assay: SAR Analysis of small molecule inhibitors of Sentrin-specific proteases (SENPs) using a Caspase-3 Selectivity assay. [Related pubchem assays (depositor defined):AID2540, AID2599, AID434973, AID489001].
Assay [18] concerns the target T3, Sentrin-specific protease 6. Put plainly: SAR Analysis of small molecule inhibitors of Sentrin-specific protease 6 (SENP6) using a Luminescent assay. [Related pubchem assays (depositor defined):AID2582, AID2599].
For assay [19], the target named is T6, Sentrin-specific protease 7. Nature of the assay: SENP7 protease inhibitors, SAR follow-up, biochemical, luminescence (AID 504497).
Assay [20] has as its target T5, Sentrin-specific protease 8. Nature of the assay: SENP8 protease inhibitors, SAR follow-up, biochemical, luminescence (AID 504501).
Assay [21] concerns the target Multidrug resistance protein CDR1 (Candida albicans, UniProt P43071). Put plainly: CaCdr1 efflux pump inhibitor potency, dose response, singleplex, Cherry Pick2 set (AID 623996). As to conditions: read-out: EC50_MICROM.
In assay [22] the target is Glycogen synthase kinase-3 alpha (Homo sapiens, UniProt P49840).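 Also: GSK3A result taken from a broad kinome-wide kinase panel.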
Glycogen synthase kinase-3 alpha, sequence (P49840 whole entry): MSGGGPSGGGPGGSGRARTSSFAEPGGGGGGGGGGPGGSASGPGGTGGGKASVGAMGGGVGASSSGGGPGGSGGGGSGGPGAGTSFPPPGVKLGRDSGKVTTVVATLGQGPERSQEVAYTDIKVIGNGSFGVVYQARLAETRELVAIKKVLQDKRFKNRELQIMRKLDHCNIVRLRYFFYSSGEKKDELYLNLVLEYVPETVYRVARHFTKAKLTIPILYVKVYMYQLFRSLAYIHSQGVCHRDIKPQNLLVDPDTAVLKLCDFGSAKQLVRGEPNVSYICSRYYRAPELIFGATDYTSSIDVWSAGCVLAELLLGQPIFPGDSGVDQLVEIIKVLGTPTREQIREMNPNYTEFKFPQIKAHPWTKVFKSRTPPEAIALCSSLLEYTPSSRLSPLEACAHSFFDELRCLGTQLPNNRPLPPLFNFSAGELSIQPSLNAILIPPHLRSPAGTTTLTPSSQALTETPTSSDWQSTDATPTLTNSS

Calls of active or inactive are those of the source. Where only a bound is given, the exact number is not on record here.

For the molecule `CCCCNC(=O)COCc1cc(-c2ccc3c(c2)OCO3)on1`, the EC50 in assay [1] is 8.04 µM (active).
On to `NC(=O)c1ccc(-c2ccncc2)cc1NCc1cccc(F)c1`, for which the Ki was > 10 µM (inactive) in [2]; 0.158 µM (active) in assay [3]; 7.94 µM (active) in assay [4]; 0.1 µM (active) in assay [5]; 0.794 µM (active) in assay [6]; 2 µM (active) in assay [7]. The Ki in assay [8] is > 7.94 µM (inactive); in assay [9], > 10 µM (inactive); in [10], > 3.16 µM (inactive).
Consider `COc1ccccc1C(CNC(=O)CNC(=O)c1ccccc1Cl)N1CCCC1` (stereo not drawn), for which the IC50 in assay [11] is > 100 µM (inactive); in [12], > 20 µM (inactive).
On to `O=C(C(=O)N1CCCc2ccccc21)c1c[nH]c2ccccc12`, for which the IC50 (in assay [13]; at Caspase-3 [14]; in assay [15]; in [16]) was > 99 µM (inactive) each time.
As for `CS(=O)(=O)c1ccc2nc(NC(=O)c3c(F)cccc3F)sc2c1`, the IC50 (on Caspase-3 [17]; in assay [18]; in assay [19]; in [20]) was > 99 µM (inactive) each time.
As for `COc1ccc2c(c1)OC[C@H]1[C@H]2N2C(=O)c3ccc(C)cc3NC(=O)[C@@]2(C)[C@H]1c1ccccc1`, the EC50 in assay [21] was 17.3 µM (active).
In the case of `Cc1cc(O)nc2[nH]nc(-c3cccc(-c4cccc(C#N)c4)c3)c12`, the Ki in assay [7] is 5.01 µM (active); in assay [22] it was 3.16 µM (active).
